Usually inhibition stands for the relative decrease from the control value, in per cent. As usually defined, the IC50 is the concentration needed to halve the response being measured.

Active and inactive are the calls of the source.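 How the source made its calls: active means inhibition above 30% at one or more tested concentrations in the dose response; inactive means inhibition below 30% at every tested concentration.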

Test system in one test: not listed separately
Put plainly: PhoP regulon inhibitors in S. Typhimurium, SAR follow-up, synthesized compounds, round 3, GFP (AID 434996). As to conditions: S. Typhimurium PhoP-regulated promoter GFP reporter, 4 h; at 150 µM (top of the series).
Turning to `O=C(Nc1ccc(Cl)cc1)N1CCCN(Cc2ccccc2Br)C1`, the inhibition is 26.3% (inactive).

Turning to `O=C(Nc1cccc(F)c1)N1CCCN(Cc2ccccc2F)C1`, the inhibition is 23.5% (inactive).

With `O=C(Nc1cccc(I)c1)N1CCCN(Cc2ccccc2F)C1`, the inhibition was 20.6% (inactive).

Regarding `Cc1cccc(NC(=O)N2CCCN(Cc3ccccc3F)C2)c1`, the inhibition was 21.2% (inactive).

As to `O=C(Nc1cccc(C(F)(F)F)c1)N1CCCN(Cc2ccccc2F)C1`, the inhibition is 8.93% (inactive).

In the case of `Cc1ccc(NC(=O)N2CCCN(Cc3ccccc3F)C2)cc1`, the inhibition is -3.01% (inactive).

`Cc1ccccc1CNC(=S)Nc1ccncc1`: the inhibition was 15.3% (inactive).

As to `N#Cc1ccc(NC(=S)NCc2ccc(Cl)cc2)cc1`, the inhibition was -4.09% (inactive).

Consider `N#Cc1ccccc1NC(=S)NCc1ccc(Cl)cc1`, for which the inhibition was -0.55% (inactive).

A further test concerns S. Typhimurium PhoP-regulated promoter GFP reporter, 4 h. The test is described as above.
Conditions: not given
On to `S=C(NCCc1ccc(Cl)cc1)Nc1ccncc1`, for which the IC50 is 29.2 µM.

Take `O=C(Nc1ccc(Cl)cc1)N1CCCN(Cc2ccc(Br)cc2)C1`: the IC50 is 135 µM.

On to `O=C(Nc1ccc(I)cc1)N1CCCN(Cc2ccccc2F)C1`, for which the IC50 is 148 µM.
